# Measured values published in the supplement of paper PMC11368000.
# How the values were obtained:
# Conditions in all cases: exposure time: 90 min
# [1] = tested on: 1434 (donor line of iPSC-derived cardiomyocytes); assay: POD (EC05) for increase in Ca2+ transient decay-to-rise ratio (QT prolongation) vs vehicle; higher = less potent (higher point of departure)
# Experimental: (§1)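 Human iPSC-derived cardiomyocytes from 16 donors were exposed for 90 min at 37 °C to each PFAS at 0.1, 1, 10 and 100 µM in 0.5% DMSO, 384-well plates. Kinetic Ca2+ flux (FLIPR) and Hoechst nuclei counts were normalised to vehicle wells and fitted with a hierarchical Bayesian Hill model to give donor-specific PODs: EC05 for beat-rate increase or decrease and for decay-to-rise ratio increase (QT proxy), EC95 for peak-frequency loss (asystole), EC10 for total cell number loss. 0.03 µM is the lower bound.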
# [2] = tested on: 30145 (donor line of iPSC-derived cardiomyocytes); assay: as above
# Experimental: as §1
# [3] = tested on: 30171 (donor line of iPSC-derived cardiomyocytes); assay: as above
# Experimental: as §1
# [4] = tested on: 1083 (donor line of iPSC-derived cardiomyocytes); assay: as above
# Experimental: as §1
# [5] = tested on: 1368 (donor line of iPSC-derived cardiomyocytes); assay: as above
# Experimental: as §1
# [6] = tested on: 20032 (donor line of iPSC-derived cardiomyocytes); assay: as above
# Experimental: as §1
# [7] = tested on: 11235 (donor line of iPSC-derived cardiomyocytes); assay: as above
# Experimental: as §1
# [8] = tested on: 1118 (donor line of iPSC-derived cardiomyocytes); assay: as above
# Experimental: as §1
# [9] = tested on: 1565 (donor line of iPSC-derived cardiomyocytes); assay: as above
# Experimental: as §1
# [10] = tested on: 1309 (donor line of iPSC-derived cardiomyocytes); assay: as above
# Experimental: as §1
# [11] = tested on: 20084 (donor line of iPSC-derived cardiomyocytes); assay: as above
# Experimental: as §1
# [12] = tested on: 1392 (donor line of iPSC-derived cardiomyocytes); assay: as above
# Experimental: as §1
# [13] = tested on: 1434; assay: POD (EC95) for loss of peak frequency (asystole) vs vehicle; higher = less potent (higher point of departure)
# Outline: (§2)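 Cardiomyocytes from human iPSCs of 16 donors spent 14 days in gelatin-coated 384-well plates before 2 h of fluorescent Ca2+ dye loading. They were then held for 90 min at 37 °C at final concentrations of 0.1, 1, 10 and 100 µM containing 0.5% DMSO, and Ca2+ flux was read on a FLIPR Tetra (8 frames/s, 100 s) before and after. Donor-level points of departure were taken from hierarchical Bayesian Hill fits to vehicle-normalised beat frequency, decay-to-rise ratio or peak frequency. For these, a 5% change was the threshold, or a 95% loss for peak frequency.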
# [14] = tested on: 30171; assay: as above
# Outline: as §2
# [15] = tested on: 1083; assay: as above
# Outline: as §2
# [16] = tested on: 20032; assay: as above
# Outline: as §2
# [17] = tested on: 11235; assay: as above
# Outline: as §2
# [18] = tested on: 1118; assay: as above
# Outline: as §2
# [19] = tested on: 1565; assay: as above
# Outline: as §2
# [20] = tested on: 1531 (donor line of iPSC-derived cardiomyocytes); assay: as above
# Outline: as §2
SMILES,POD vs vehicle [1] [µM],POD vs vehicle [2] [µM],POD vs vehicle [3] [µM],POD vs vehicle [4] [µM],POD vs vehicle [5] [µM],POD vs vehicle [6] [µM],POD vs vehicle [7] [µM],POD vs vehicle [8] [µM],POD vs vehicle [9] [µM],POD vs vehicle [10] [µM],POD vs vehicle [11] [µM],POD vs vehicle [12] [µM],POD vs vehicle [13] [µM],POD vs vehicle [14] [µM],POD vs vehicle [15] [µM],POD vs vehicle [16] [µM],POD vs vehicle [17] [µM],POD vs vehicle [18] [µM],POD vs vehicle [19] [µM],POD vs vehicle [20] [µM]
O=C(O)C(F)(F)C(F)(F)OC(F)(F)F [Perfluoro-3-methoxypropanoic_acid],> 100,> 100,> 100,> 100,> 100,> 100,> 100,> 100,> 100,> 100,> 100,> 100,> 100,> 100,> 100,> 100,> 100,> 100,> 100,> 100
O=C(O)C(F)(F)C(F)(F)C(F)(F)OC(F)(C(F)(F)F)C(F)(F)F [Perfluoro-4-isopropoxybutanoic_acid],> 100,> 100,> 100,> 100,> 100,> 100,> 100,> 100,> 100,> 100,> 100,> 100,> 100,> 100,> 100,> 100,> 100,> 100,> 100,> 100
O=S(=O)(O)C(F)(F)C(F)(F)C(F)(F)C(F)(F)F [Perfluorobutanesulfonic_acid],> 100,> 100,> 100,> 100,> 100,> 100,> 100,> 100,> 100,> 100,> 100,> 100,> 100,> 100,> 100,> 100,> 100,> 100,> 100,> 100
O=C(O)C(F)(F)C(F)(F)C(F)(F)F [Perfluorobutanoic_acid],> 100,> 100,> 100,> 100,> 100,> 100,> 100,> 100,> 100,> 100,> 100,> 100,> 100,> 100,> 100,> 100,> 100,> 100,> 100,> 100
O=C(O)C(F)(F)C(F)(F)C(F)(F)C(F)(F)C(F)(F)C(F)(F)C(F)(F)C(F)(F)C(F)(F)F [Perfluorodecanoic_acid],19.9,> 100,> 100,> 100,> 100,> 100,> 100,> 100,> 100,> 100,> 100,> 100,67.4,36.5,74.6,> 100,67.4,9.5,> 100,> 100
O=C(O)C(F)(F)C(F)(F)C(F)(F)C(F)(F)C(F)(F)C(F)(F)F [Perfluoroheptanoic_acid],> 100,> 100,> 100,> 100,> 100,> 100,> 100,> 100,> 100,> 100,> 100,> 100,> 100,> 100,> 100,> 100,> 100,> 100,> 100,> 100
NS(=O)(=O)C(F)(F)C(F)(F)C(F)(F)C(F)(F)C(F)(F)C(F)(F)F [Perfluorohexanesulfonamide],> 100,> 100,> 100,30.8,> 100,> 100,> 100,> 100,> 100,> 100,> 100,> 100,58.4,49.3,> 100,96,6.45,7.84,> 100,40.8
O=S(=O)(O)C(F)(F)C(F)(F)C(F)(F)C(F)(F)C(F)(F)C(F)(F)F [Perfluorohexanesulfonic_acid],> 100,> 100,21.2,> 100,> 100,> 100,> 100,> 100,> 100,> 100,> 100,> 100,> 100,> 100,> 100,> 100,> 100,> 100,> 100,> 100
O=C(O)C(F)(F)C(F)(F)C(F)(F)C(F)(F)C(F)(F)F [Perfluorohexanoic_acid],> 100,> 100,> 100,> 100,> 100,> 100,> 100,> 100,> 100,> 100,> 100,> 100,> 100,> 100,> 100,> 100,> 100,> 100,> 100,> 100
O=C(O)C(F)(F)C(F)(F)C(F)(F)C(F)(F)C(F)(F)C(F)(F)C(F)(F)C(F)(F)F [Perfluorononanoic_acid],> 100,> 100,> 100,> 100,> 100,> 100,> 100,> 100,> 100,> 100,> 100,> 100,> 100,82.8,> 100,> 100,31.5,99.4,> 100,> 100
